molecular target: T1, Recombinant human HSD17B13 enzyme (Homo sapiens, UniProt Q7Z5P4); experiment: HSD17b13 NAD(P)H-Glo biochemical assay; conditions: 50 uM estradiol, 1 mM NAD+, NAD(P)H-Glo luminescence; read-out: HSD17β13 IC50
T1 sequence (Q7Z5P4 20-300): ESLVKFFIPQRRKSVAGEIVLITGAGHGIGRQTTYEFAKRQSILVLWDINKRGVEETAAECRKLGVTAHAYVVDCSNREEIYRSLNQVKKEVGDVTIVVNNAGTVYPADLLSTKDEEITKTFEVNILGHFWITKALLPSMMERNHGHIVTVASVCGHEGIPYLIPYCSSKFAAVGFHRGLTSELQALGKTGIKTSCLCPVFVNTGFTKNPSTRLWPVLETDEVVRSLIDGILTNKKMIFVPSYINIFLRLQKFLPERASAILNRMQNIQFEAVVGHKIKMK
Description: Example B-1: HSD17b13 NAD(P)H-Glo Biochemical Assay
Recombinant human HSD17B13 enzyme. Substrate: estradiol (Sigma β-Estradiol E8875), 100 mM in DMSO. Cofactor: NAD+ Grade I free acid (Sigma 10127965001), 20 mM in H2O. Assay buffer final concentration: 20 mM Tris pH7.4 with 0.002% Tween-20 and 0.02% BSA. Assay performed in 384 well solid bottom plate (Corning 3570). Enzymatic activity detected by NAD(P)H-Glo™ Detection System (Promega G9062).
Inhibitor compounds were serially diluted in DMSO and then further diluted in assay buffer to a 10× concentration consisting of 1% DMSO.
HSD17b13 enzyme was diluted in 1× assay buffer to the desired enzyme concentration based on the specific activity of the enzyme lot. 20 uL of diluted enzyme was added to each well along with 2.5 uL of 10× inhibitor solution. Assay plate was incubated at RT for 20 minutes, and then 2.5 uL of a 10× substrate/cofactor mix was added to each well for a final concentration of 50 uM estradiol and 1 mM NAD+. Assay plate was incubated at 37° C. for 3 hours. NAD(P)H-Glo™ Detection System reagents were prepared according to manufacturer's specifications, and 25 uL was added to each well. After incubating for 1 hour at RT, luminescence was measured.

Structure (SMILES) | IC50
CC(=O)Nc1cccc(-c2ccc(-n3ncc4cc(F)c(O)cc43)cc2)c1 [Compound 13.31, N-(4′-(5-Fluoro-6-hydroxy-1H-indazol-1-yl)-[1,1′-biphenyl]-3-yl)acetamide] | 1000 to 30000 nM
Oc1cc2c(cnn2-c2ccc(-c3cccc(F)c3)cc2)cc1F [Compound 13.4, 5-Fluoro-1-(3′-fluoro-[1,1′-biphenyl]-4-yl)-1H-indazol-6-ol] | 100 to 1000 nM
CC1(C)CN(c2ccc(-n3ncc4cc(F)c(O)c(F)c43)cc2)CCO1 [Compound 20.5, 1-(4-(2,2-Dimethylmorpholino)phenyl)-5,7-difluoro-1H-indazol-6-ol] | < 100 nM
Oc1cccc(-c2ccc(-n3nc(F)c4cc(F)c(O)c(F)c43)cc2)c1 [Compound 5.4, 3,5,7-Trifluoro-1-(3′-hydroxy-[1,1′-biphenyl]-4-yl)-1H-indazol-6-ol] | 100 to 1000 nM
CC1(C)CCN(c2ccc(-n3c(=O)sc4cc(F)c(O)c(F)c43)cc2)CC1 [Compound 7.3, 3-(4-(4,4-Dimethylpiperidin-1-yl)phenyl)-4,6-difluoro-5-hydroxybenzo[d]thiazol-2(3H)-one] | 100 to 1000 nM
CC1(C)CCN(c2ccc(-n3nnc4cc(F)c(O)c(F)c43)cc2)CC1 [Compound 21, 1-(4-(4,4-Dimethylpiperidin-1-yl)phenyl)-5,7-difluoro-1H-benzo[d][1,2,3]triazol-6-ol] | < 100 nM
CC1(C)CN(c2ccc(-n3ncc4cc(F)c(O)c(F)c43)cc2)CC(C)(C)O1 [Compound 20.12, 5,7-Difluoro-1-(4-(2,2,6,6-tetramethylmorpholino)phenyl)-1H-indazol-6-ol] | < 100 nM
OCc1ccc(-c2ccc(-n3ncc4cc(F)c(O)cc43)cc2)cc1 [Compound 13.23, 5-Fluoro-1-(4′-(hydroxymethyl)-[1,1′-biphenyl]-4-yl)-1H-indazol-6-ol] | 100 to 1000 nM
Oc1cc2c(cnn2-c2ccc(Oc3ccccc3)cc2)cc1F [Compound 2.3, 5-Fluoro-1-(4-phenoxyphenyl)-1H-indazol-6-o1] | 100 to 1000 nM
Oc1c(F)cc2cnn(-c3ccc(-c4ccc(Cl)cc4)cc3)c2c1F [Compound 13, 1-(4′-Chloro-[1,1′-biphenyl]-4-yl)-5,7-difluoro-1H-indazol-6-ol] | < 100 nM
Oc1cc2c(cnn2-c2ccc(-c3ccccn3)cc2)cc1F [Compound 13.13, 5-Fluoro-1-(4-(pyridin-2-yl)phenyl)-1H-indazol-6-ol] | 1000 to 30000 nM
O=C(O)c1ccc(-c2ccc(-n3ncc4cc(F)c(O)cc43)cc2)cc1 [Compound 13.30, 4′-(5-Fluoro-6-hydroxy-1H-indazol-1-yl)-[1,1′-biphenyl]-4-carboxylic acid] | 1000 to 30000 nM
Oc1ccc(-c2ccc(-n3nnc4cc(F)c(O)cc43)cc2)cc1 [Compound 10, 5-Fluoro-1-(4′-hydroxy-[1,1′-biphenyl]-4-yl)-1H-benzo[d][1,2,3]triazol-6-ol] | < 100 nM
Cc1cc(-n2ncc3cc(F)c(O)c(F)c32)ccc1N1CCN(S(C)(=O)=O)CC1 [Compound 20.3, 5,7-Difluoro-1-(3-methyl-4-(4-(methylsulfonyl)piperazin-1-yl)phenyl)-1H-indazol-6-ol] | < 100 nM
Oc1ccc(-c2ccc(-n3ncc4cc(F)c(O)c(F)c43)cc2)cc1 [Compound 13.1, 5,7-Difluoro-1-(4′-hydroxy-[1,1′-biphenyl]-4-yl)-1H-indazol-6-ol] | < 100 nM
Oc1cc2c(cnn2-c2ccc(-c3ccc(O)c(Cl)c3)cc2)cc1F [Compound 15, 1-(3′-Chloro-4′-hydroxy-[1,1′-biphenyl]-4-yl)-5-fluoro-1H-indazol-6-ol] | 100 to 1000 nM
Oc1cccc(-c2ccc(-n3ncc4cc(F)c(O)c(Cl)c43)cc2)c1 [Compound 17, 7-Chloro-5-fluoro-1-(3′-hydroxy-[1,1′-biphenyl]-4-yl)-1H-indazol-6-ol] | 100 to 1000 nM
Oc1cc2c(cnn2-c2ccc(-c3ccccc3F)cc2)cc1F [Compound 13.3, 5-Fluoro-1-(2′-fluoro-[1,1′-biphenyl]-4-yl)-1H-indazol-6-ol] | 100 to 1000 nM
CC1(C)CCN(c2ccc(-n3nnc4cc(F)c(O)cc43)cc2)CC1 [Compound 21.7, 1-(4-(4,4-Dimethylpiperidin-1-yl)phenyl)-5-fluoro-1H-benzo[d][1,2,3]triazol-6-ol] | < 100 nM
CS(=O)(=O)C1CN(c2ccc(-n3nnc4cc(F)c(O)c(F)c43)cc2)C1 [Compound 20.14, 5,7-Difluoro-1-(4-(3-(methylsulfonyl)azetidin-1-yl)phenyl)-1H-benzo[d][1,2,3]triazol-6-ol] | 100 to 1000 nM
NS(=O)(=O)c1ccc(-c2ccc(-n3ncc4cc(F)c(O)cc43)cc2)cc1 [Compound 13.38, 4′-(5-Fluoro-6-hydroxy-1H-indazol-1-yl)-[1,1′-biphenyl]-4-sulfonamide] | < 100 nM
Oc1c(F)cc2ncn(-c3ccc(N4CC5(CCOCC5)C4)cc3)c2c1F [Compound 20.11, 1-(4-(7-Oxa-2-azaspiro[3.5]nonan-2-yl)phenyl)-5,7-difluoro-1H-benzo[d]imidazol-6-ol] | 100 to 1000 nM
NC(=O)c1ccc(-c2ccc(-n3ncc4cc(F)c(O)cc43)cc2)cc1 [Compound 13.36, 4′-(5-Fluoro-6-hydroxy-1H-indazol-1-yl)-[1,1′-biphenyl]-4-carboxamide] | 100 to 1000 nM
Oc1cc(F)c2cnn(-c3ccc(-c4cccc(O)c4Br)cc3)c2c1 [Compound 2.9, 1-(2′-Bromo-3′-hydroxy-[1,1′-biphenyl]-4-yl)-4-fluoro-1H-indazol-6-ol] | 1000 to 30000 nM

More lines, now with the values ahead:

IC50 | Structure (SMILES)
100 to 1000 nM | COc1nn(-c2ccc(N3CCC(C)(C)CC3)cc2)c2c(F)c(O)c(F)cc12 [Compound 37.1, 1-(4-(4,4-Dimethylpiperidin-1-yl)phenyl)-5,7-difluoro-3-methoxy-1H-indazol-6-ol]
100 to 1000 nM | CC1(C)CCN(c2cnc(-n3ncc4cc(F)c(O)c(F)c43)nc2)CC1 [Compound 26.8, 1-(5-(4,4-Dimethylpiperidin-1-yl)pyrimidin-2-yl)-5,7-difluoro-1H-indazol-6-ol]
< 100 nM | C[C@H]1CN(c2ccc(-n3ncc4cc(F)c(O)c(F)c43)cc2)C[C@H](C)S1 (relative stereo) [Compound 32.5, 1-(4-(trans-2,6-Dimethylthiomorpholino)phenyl)-5,7-difluoro-1H-indazol-6-ol]
< 100 nM | CC1(C)CCN(c2ncc(-n3nnc4cc(F)c(O)c(F)c43)cn2)CC1 [Compound 42, 1-(2-(4,4-Dimethylpiperidin-1-yl)pyrimidin-5-yl)-5,7-difluoro-1H-benzo[d][1,2,3]triazol-6-ol]
< 100 nM | CC1CCN(c2ccc(-n3ncc4cc(F)c(O)c(F)c43)cc2)CC1 [Compound 23.18, 5,7-Difluoro-1-(4-(4-methylpiperidin-1-yl)phenyl)-1H-indazol-6-ol]
100 to 1000 nM | CS(=O)(=O)N1CCN(c2ccc(-n3nnc4cc(F)c(O)c(F)c43)cn2)CC1 [Compound 26.13, 5,7-Difluoro-1-(6-(4-(methylsulfonyl)piperazin-1-yl)pyridin-3-yl)-1H-benzo[d][1,2,3]triazol-6-ol]
< 100 nM | C[C@H]1CN(c2ccc(-n3ncc4cc(F)c(O)c(F)c43)cc2)C[C@H](C)O1 [Compound 24.9, 1-(4-((2S,6S)-2,6-Dimethylmorpholino)phenyl)-5,7-difluoro-1H-indazol-6-ol]
100 to 1000 nM | [O-][S+]1CCC2(CC1)CN(c1ccc(-n3ncc4cc(F)c(O)c(F)c43)cc1)C2 [Compound 32.1, 2-(4-(5,7-Difluoro-6-hydroxy-1H-indazol-1-yl)phenyl)-7-thia-2-azaspiro[3.5]nonane 7-oxide]
< 100 nM | Oc1c(F)cc2cnn(-c3ccc(C4=CCCCC4)cc3)c2c1F [Compound 27.1, 5,7-Difluoro-1-(2′,3′,4′,5′-tetrahydro-[1,1′-biphenyl]-4-yl)-1H-indazol-6-ol]
1000 to 30000 nM | CC1(C)CCN(c2ccc(-n3ncc4cc(F)c(O)nc43)cc2)CC1 [Compound 25.2, 1-(4-(4,4-Dimethylpiperidin-1-yl)phenyl)-5-fluoro-1H-pyrazolo[3,4-b]pyridin-6-ol]
1000 to 30000 nM | Oc1c(F)cc2nnn(-c3ccc(N4CC5(CCOCC5)C4)nn3)c2c1F [Compound 26.24, 1-(6-(7-Oxa-2-azaspiro[3.5]nonan-2-yl)pyridazin-3-yl)-5,7-difluoro-1H-benzo[d][1,2,3]triazol-6-ol]

same assay, conditions: 3 h; at 10 uM compound; read-out: HSD17β13 % at 10 uM

inhibition at 10 µM | Structure (SMILES)
< 20% | CC1(C)CCN(c2ccc(-n3ncc4cnc(O)c(F)c43)cc2)CC1 [Compound 25.4, 1-(4-(4,4-Dimethylpiperidin-1-yl)phenyl)-7-fluoro-1H-pyrazolo[4,3-c]pyridin-6-ol]

same assay, conditions: 3 h; at 30 uM compound; read-out: HSD17β13 % at 30 uM

inhibition at 30 µM | Structure (SMILES)
40% | Oc1cc2c(cnn2-c2ccc(-c3cccnc3)cc2)cc1F [Compound 13.14, 5-Fluoro-1-(4-(pyridin-3-yl)phenyl)-1H-indazol-6-ol]

Reference: patent publication US20240083853A1, “HSD17B13 INHIBITORS AND USES THEREOF” (FL2022-001, Inc., priority 2020, published 2024)
